Patent US10662193B2, “Carbazole and carboline compounds for use in the diagnosis, treatment, alleviation or prevention of disorders associated with amyloid or amyloid-like proteins” (AC IMMUNE SA, priority 2014, dated 2020)

Target: T1, in vitro aggregated Abeta1-42 (Homo sapiens, UniProt P05067)
T1 construct: Abeta1-42 (Bachem, Switzerland) peptide films were re-suspended in 1% DMSO; purchased Bachem, Switzerland
Test: Assay 2 (filter trap): [3H]RefA competition and Ki on aggregated Abeta1-42 (selectivity tau versus Abeta)
Format: binding
Conditions: Table 24; fold increase of the Ki on aggregated Abeta1-42 versus PHF
Procedure: Recombinant human full-length Tau441 (flTau) was expressed in bacteria and purified in the laboratory of Professor Hilal Lashuel (EPFL, Switzerland). A solution of 8 μM (400 μg/mL) flTau in PBS, 10 μM DTT and 5 μM heparin (all from Sigma-Aldrich) was gently mixed (cradled) for 3 days at 37° C. Cradled flTau aggregates were used at a final concentration of 20 μg/mL in all binding assays. Abeta1-42 (Bachem, Switzerland) peptide films were re-suspended in 1% DMSO and diluted in PBS to a 33 μM (150 μg/mL) suspension that was sonicated until complete dissolution. Aggregation process was done at 37° C. for 24 hours. Aggregated Abeta1-42 was used at a concentration of 20 μg/mL in all binding assays.
AD brain-enriched PHF diluted 1/80 were incubated in the presence of [^3H]RefA at 10 nM and the example compounds of this invention at 2.5 μM (250× excess), for 45 minutes at 37° C. Samples were then analyzed by on GF/B filter plates as described above (in the section “[^3H]RefA radio-binding assay and determination of the dissociation constant (Kd)). Non-specific signal was determined again with an excess of un-labeled RefA and specific binding calculated by subtracting the non-specific signal from the total signal. […]

T1 sequence (P05067 672-713 limits assumed): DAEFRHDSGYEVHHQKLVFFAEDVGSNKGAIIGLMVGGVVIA

Row | SMILES | Fold increase on Abeta1-42 vs PHF
1 | Cn1c2ccncc2c2ccc(Nc3ccc(OC(F)F)cc3)nc21 [Example 9] | 200
2 | Cn1c2ccncc2c2ccc(Nc3cccc(OCCF)c3)nc21 [Example 8] | 0.5
